Assays:
Assay type in all cases: biochemical
KDM4C (JMJD2C) = molecular target: T1, KDM4C (JMJD2C) (Homo sapiens, UniProt Q9H3R0); assay: Histone lysine demethylase AlphaLISA assay, KDM4C; settings: in vitro enzyme, read-out: KDM4C IC50 (HDME Inhibition)
T1 construct: 1-349; host or cells: E. coli
T1 sequence (Q9H3R0 1-349): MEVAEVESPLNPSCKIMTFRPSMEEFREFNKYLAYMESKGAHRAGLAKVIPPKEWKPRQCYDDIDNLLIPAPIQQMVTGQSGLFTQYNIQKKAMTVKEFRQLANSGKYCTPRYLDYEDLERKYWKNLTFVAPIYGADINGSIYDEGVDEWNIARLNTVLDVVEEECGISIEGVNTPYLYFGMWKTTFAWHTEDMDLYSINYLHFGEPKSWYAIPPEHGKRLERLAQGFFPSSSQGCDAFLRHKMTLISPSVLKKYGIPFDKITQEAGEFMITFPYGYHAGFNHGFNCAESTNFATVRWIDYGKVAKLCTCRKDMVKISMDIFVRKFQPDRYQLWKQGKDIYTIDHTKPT
Method: (§1) Histone lysine demethylase AlphaLISA assays are performed to determine IC50 values. […] Assays are performed analogously to the protocol described by PerkinElmer (Roy et al. PerkinElmer Technical Note: AlphaLISA #12, April 2011).
(§2) Assays are performed analogously to the protocol described by PerkinElmer (Roy et al. PerkinElmer Technical Note: AlphaLISA #12, April 2011).
(§3) Enzymes (final assay concentration 0.1-2.5 nM) are dissolved in enzyme buffer and incubated for 10 min before 5 μL is added to 5 μL 3% DMSO solutions of compounds in enzyme buffer, incubated for another 10 minutes, before 5 μL substrate solution is added and the reaction mixture is incubated at room temperature. 10 μL acceptor beads, suspended Epigenetic Buffer (Perkin Elmer AL008) from stock, are added and the suspension is incubated in the dark at room temperature, before 10 μL suspension of streptavidin donor beads (Perkin Elmer 6760002) in Epigenetic Buffer is added. After incubation at room temperature in the dark the plates are read.
(§4) Substrate solution: Substrate (final assay concentration 50-200 nM), 50 mM Hepes (pH 7.4-8.0), 0.003% Tween-20, 0.1% BS, 25 μM L-Asc, 10 μM α-KG. Enzyme Buffer: 50 mM Hepes (pH 7.4-8.0), 0.003% Tween-20, 0.1% BSA; 5 μM (NH4)2Fe(SO4)2

KDM5B (PLU-1) = molecular target: T2, KDM5B (PLU-1) (Homo sapiens, UniProt Q9UGL1); assay: Histone lysine demethylase AlphaLISA assay, KDM5B; settings: in vitro enzyme, read-out: KDM5B IC50 (HDME Inhibition)
T2 construct: 1-809; host or cells: E. coli
T2 sequence (Q9UGL1 1-809): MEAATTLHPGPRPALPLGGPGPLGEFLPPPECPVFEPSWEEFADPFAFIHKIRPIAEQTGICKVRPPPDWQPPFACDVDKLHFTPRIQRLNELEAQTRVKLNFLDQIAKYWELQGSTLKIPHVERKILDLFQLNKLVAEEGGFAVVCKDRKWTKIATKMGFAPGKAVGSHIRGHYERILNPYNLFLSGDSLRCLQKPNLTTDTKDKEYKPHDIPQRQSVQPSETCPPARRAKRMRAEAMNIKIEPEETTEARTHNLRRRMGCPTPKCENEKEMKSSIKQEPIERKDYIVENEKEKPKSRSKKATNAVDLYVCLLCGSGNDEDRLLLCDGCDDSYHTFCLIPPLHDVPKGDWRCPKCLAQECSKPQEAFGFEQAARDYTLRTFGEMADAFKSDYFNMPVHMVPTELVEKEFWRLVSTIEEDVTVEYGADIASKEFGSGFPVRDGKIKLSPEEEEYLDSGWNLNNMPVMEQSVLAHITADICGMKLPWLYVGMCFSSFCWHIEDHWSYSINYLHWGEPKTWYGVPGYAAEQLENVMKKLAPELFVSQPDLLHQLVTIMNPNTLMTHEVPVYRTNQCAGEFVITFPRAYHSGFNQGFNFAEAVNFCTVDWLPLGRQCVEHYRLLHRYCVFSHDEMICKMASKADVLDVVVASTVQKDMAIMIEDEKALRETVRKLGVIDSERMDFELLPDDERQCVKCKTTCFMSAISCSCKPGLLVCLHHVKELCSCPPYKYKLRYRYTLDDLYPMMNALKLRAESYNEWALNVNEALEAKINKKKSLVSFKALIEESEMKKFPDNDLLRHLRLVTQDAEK
Method: as §1, §2, §3, §4

KDM6A (UTX) = molecular target: T3, KDM6A (UTX) (Homo sapiens, UniProt O15550); assay: Histone lysine demethylase AlphaLISA assay, KDM6A; settings: in vitro enzyme, read-out: KDM6A IC50 (HDME Inhibition)
T3 construct: 919-1401; host or cells: E. coli
T3 sequence (O15550 919-1401): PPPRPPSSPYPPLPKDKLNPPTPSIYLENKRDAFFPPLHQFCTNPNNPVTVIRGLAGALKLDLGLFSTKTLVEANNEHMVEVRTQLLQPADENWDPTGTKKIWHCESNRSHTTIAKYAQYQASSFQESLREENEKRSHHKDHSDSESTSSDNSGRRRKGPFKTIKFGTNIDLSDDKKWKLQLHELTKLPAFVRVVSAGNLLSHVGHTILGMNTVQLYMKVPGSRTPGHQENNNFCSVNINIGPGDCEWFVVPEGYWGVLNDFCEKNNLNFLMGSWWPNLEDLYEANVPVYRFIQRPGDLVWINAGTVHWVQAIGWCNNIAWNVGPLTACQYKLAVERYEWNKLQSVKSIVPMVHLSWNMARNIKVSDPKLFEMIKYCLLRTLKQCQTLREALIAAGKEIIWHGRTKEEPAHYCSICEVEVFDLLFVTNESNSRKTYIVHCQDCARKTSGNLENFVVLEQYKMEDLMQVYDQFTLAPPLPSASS
Method: as §1, §2, §3, §4

PHF8 (KDM7) = PHF8 (KDM7) (Homo sapiens, UniProt Q9UPP1); assay: Histone lysine demethylase AlphaLISA assay, PHF8; settings: in vitro enzyme, read-out: PHF8 IC50 (HDME Inhibition)
Chain of PHF8 (KDM7) (Q9UPP1 whole entry): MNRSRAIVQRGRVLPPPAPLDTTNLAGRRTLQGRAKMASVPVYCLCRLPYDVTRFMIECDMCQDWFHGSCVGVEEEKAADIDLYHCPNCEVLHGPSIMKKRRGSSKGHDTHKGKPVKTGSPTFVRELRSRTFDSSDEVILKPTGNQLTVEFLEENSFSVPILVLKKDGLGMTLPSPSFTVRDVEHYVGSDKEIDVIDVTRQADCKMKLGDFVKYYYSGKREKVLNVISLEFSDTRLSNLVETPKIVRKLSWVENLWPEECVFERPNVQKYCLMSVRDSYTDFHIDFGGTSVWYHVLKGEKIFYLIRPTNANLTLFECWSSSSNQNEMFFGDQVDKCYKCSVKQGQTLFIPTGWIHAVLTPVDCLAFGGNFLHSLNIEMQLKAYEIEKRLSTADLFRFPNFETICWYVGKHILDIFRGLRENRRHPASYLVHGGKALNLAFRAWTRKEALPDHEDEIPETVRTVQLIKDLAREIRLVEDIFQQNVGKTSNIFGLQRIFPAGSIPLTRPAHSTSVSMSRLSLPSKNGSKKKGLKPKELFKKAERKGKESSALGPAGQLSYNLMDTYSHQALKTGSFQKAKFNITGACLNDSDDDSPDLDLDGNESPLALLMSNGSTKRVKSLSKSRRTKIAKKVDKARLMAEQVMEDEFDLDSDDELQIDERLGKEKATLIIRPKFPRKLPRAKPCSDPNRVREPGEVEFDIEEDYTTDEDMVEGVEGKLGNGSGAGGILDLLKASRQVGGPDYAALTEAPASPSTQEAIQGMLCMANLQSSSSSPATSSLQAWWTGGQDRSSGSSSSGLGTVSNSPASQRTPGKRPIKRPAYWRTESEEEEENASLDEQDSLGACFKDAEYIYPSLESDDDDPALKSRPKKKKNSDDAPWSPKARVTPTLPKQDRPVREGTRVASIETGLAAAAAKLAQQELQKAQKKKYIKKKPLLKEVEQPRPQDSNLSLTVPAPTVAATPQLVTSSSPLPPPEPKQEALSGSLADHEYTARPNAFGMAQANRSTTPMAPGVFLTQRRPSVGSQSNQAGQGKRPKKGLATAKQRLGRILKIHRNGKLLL
Method: as §1, §2, §3, §4

KDM2B (FBXL10) = molecular target: T4, KDM2B (FBXL10) (Homo sapiens, UniProt Q8NHM5); assay: Histone lysine demethylase AlphaLISA assay, KDM2B; settings: in vitro enzyme, read-out: KDM2B IC50 (HDME Inhibition)
T4 construct: 1-650; purchased BPS Bioscience, US; host or cells: Bac (baculovirus/insect cells)
T4 sequence (Q8NHM5 1-650): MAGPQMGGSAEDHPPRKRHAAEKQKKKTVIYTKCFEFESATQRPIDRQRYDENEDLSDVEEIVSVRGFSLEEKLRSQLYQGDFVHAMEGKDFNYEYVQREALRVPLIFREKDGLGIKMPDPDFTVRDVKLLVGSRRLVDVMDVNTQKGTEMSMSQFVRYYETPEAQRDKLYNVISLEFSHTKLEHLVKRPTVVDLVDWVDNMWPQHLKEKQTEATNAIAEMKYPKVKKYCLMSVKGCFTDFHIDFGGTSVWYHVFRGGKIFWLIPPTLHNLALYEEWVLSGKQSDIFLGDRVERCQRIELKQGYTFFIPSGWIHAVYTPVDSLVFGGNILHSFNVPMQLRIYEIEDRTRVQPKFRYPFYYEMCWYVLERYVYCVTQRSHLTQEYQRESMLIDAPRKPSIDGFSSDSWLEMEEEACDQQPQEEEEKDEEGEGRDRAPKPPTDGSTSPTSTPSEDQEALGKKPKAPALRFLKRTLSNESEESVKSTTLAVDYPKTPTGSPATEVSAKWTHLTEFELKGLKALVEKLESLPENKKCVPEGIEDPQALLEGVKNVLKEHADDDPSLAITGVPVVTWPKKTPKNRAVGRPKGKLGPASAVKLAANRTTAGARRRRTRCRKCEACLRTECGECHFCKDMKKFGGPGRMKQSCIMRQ
Method: as §1, §2, §3, §4

Compound | IC50 (KDM4C (JMJD2C)) [µM] | IC50 (KDM5B (PLU-1)) [µM] | IC50 (KDM6A (UTX)) [µM] | IC50 (PHF8 (KDM7)) [µM] | IC50 (KDM2B (FBXL10)) [µM]
CC(C)C[C@@H](CO)NCc1cc(C(=O)O)ccn1 [Compound 61, (S)-2-{[(1-hydroxy-4-methylpentan-2-yl)amino]methyl}pyri-dine-4-carboxylic acid] | < 0.25 | < 0.25 | – | – | –
O=C(O)c1ccnc(CNC2CCc3c(Cc4ccccc4)ccnc32)c1 (stereo not shown) [Compound 92, 2-[({4-benzyl-5H,6H,7H-cyclopenta[b]pyridin-7-yl}amino)methyl]pyri-dine-4-carboxylic acid] | – | < 0.25 | > 2.5 | 0.25 to 2.5 | 0.25 to 2.5
O=C(O)c1ccnc(CNC2CCc3c(Br)ccnc32)c1 (stereo not shown) [Compound 91, 2-[({4-bromo-5H,6H,7H-cyclopenta[b]pyridin-7-yl}amino)methyl]pyri-dine-4-carboxylic acid] | 0.25 to 2.5 | < 0.25 | – | – | –
CC(N[C@@H](C)C(=O)NCc1ccc([N+](=O)[O-])cc1)c1cc(C(=O)O)ccn1 (stereo partly drawn) [Compound 5, 2-(1-{[(1S)-1-{[(4-nitrophenyl)methyl]carbamoyl}ethyl]amino}ethyl)pyridine-4-carboxylic acid] | > 2.5 | > 2.5 | – | > 2.5 | –
O=C(O)c1ccnc(CN2CCCC[C@H]2CC(=O)N2CCCCC2)c1 [Compound 70, 2-{[(2S)-2-[2-oxo-2-(piperidin-1-yl)ethyl]piperidin-1-yl]methyl}pyridine-4-carboxylic acid] | > 2.5 | – | – | > 2.5 | –
CCN(CC)C(=O)CCN(CCNC(C)=O)Cc1cc(C(=O)O)ccn1 [Compound 27, 2-({[2-(diethylcarbamoyl)ethyl](2-acetamidoethyl)amino}methyl)pyridine-4-carboxylic acid] | – | 0.25 to 2.5 | > 2.5 | 0.25 to 2.5 | 0.25 to 2.5
COc1ccc([C@@H](C)N2CC[C@@H](CNCc3cc(C(=O)O)ccn3)C2=O)cc1 [Compound 78, 2-[({[(3S)-1-[(1R)-1-(4-methoxyphenyl)ethyl]-2-oxopyrrolidin-3-yl]methyl}amino)methyl]pyridine-4-carboxylic acid] | – | – | > 2.5 | < 0.25 | < 0.25
CC(N[C@@H](C)C(=O)NCc1cccc(C(=O)O)c1)c1cc(C(=O)O)ccn1 (stereo partly drawn) [Compound 1, 2-(1-{[(1S)-1-{[(3-carboxyphenyl)methyl]carbamoyl}ethyl]amino}ethyl)pyridine-4-carboxylic acid] | > 2.5 | – | > 2.5 | – | –

The remaining lines, values ahead:

IC50 (KDM4C (JMJD2C)) [µM] | IC50 (KDM5B (PLU-1)) [µM] | IC50 (KDM6A (UTX)) [µM] | IC50 (PHF8 (KDM7)) [µM] | IC50 (KDM2B (FBXL10)) [µM] | Compound
> 2.5 | > 2.5 | – | – | – | O=C(O)c1ccnc(CN2CCCC(c3ccccc3)C2CO)c1 (stereo not shown) [Compound 63, 2-{[2-(hydroxymethyl)-3-phenylpiperidin-1-yl]methyl}pyridine-4-carboxylic acid]
< 0.25 | < 0.25 | 0.25 to 2.5 | – | – | C[C@H](c1ccccc1)N1CC[C@H](CNCc2cc(C(=O)O)ccn2)C1=O [Compound 82, 2-[({[(3R)-2-oxo-1-[(1R)-1-phenylethyl]pyrrolidin-3-yl]methyl}amino)methyl]pyridine-4-carboxylic acid]
0.25 to 2.5 | < 0.25 | > 2.5 | – | – | O=C(O)c1ccnc(CNC2CCn3ccnc32)c1 (stereo not shown) [Compound 93, 2-[({5H,6H,7H-pyrrolo[1,2-a]imidazol-7-yl}amino)methyl]pyri-dine-4-carboxylic acid]
> 2.5 | 0.25 to 2.5 | – | > 2.5 | – | O=C(O)c1ccnc(CN2CCC(c3ccc(F)cc3)n3ccnc3C2)c1 (stereo not shown) [Compound 50, 2-{[5-(4-fluorophenyl)-5H,6H,7H,8H,9H-imidazo[1,2-a][1,4]diazepin-8-yl]methyl}pyridine-4-carboxylic acid]
> 2.5 | 0.25 to 2.5 | – | – | – | O=C(O)c1ccnc(CN2CCCC(C3CCCCC3)C2CO)c1 (stereo not shown) [Compound 62, 2-{[3-cyclohexyl-2-(hydroxymethyl)piperidin-1-yl]methyl}pyridine-4-carboxylic acid]
– | > 2.5 | > 2.5 | 0.25 to 2.5 | 0.25 to 2.5 | CCNC(=O)C1CCN(Cc2cc(C(=O)O)ccn2)CC1 [Compound 75, 2-{[4-(ethylcarbamoyl)piper-idin-1-yl]methyl} pyridine-4-carboxylic acid]
0.25 to 2.5 | < 0.25 | – | < 0.25 | – | C=Cc1ccnc2c1CCC2NCc1cc(C(=O)O)ccn1 (stereo not shown) [Compound 100, 2-[({4-ethenyl-5H,6H,7H-cyclopenta[b]pyridin-7-yl}amino)methyl]pyri-dine-4-carboxylic acid]
0.25 to 2.5 | < 0.25 | – | < 0.25 | – | O=C(O)c1ccnc(CNC2CCCn3ccnc32)c1 (stereo not shown) [Compound 90, 2-[({5H,6H,7H,8H-imidazo[1,2-a]pyridin-8-yl}amino)methyl]pyri-dine-4-carboxylic acid]
– | < 0.25 | > 2.5 | < 0.25 | 0.25 to 2.5 | CC(C)(C)c1nc2ccccn2c1CNCc1cc(C(=O)O)ccn1 [Compound 88, 2-{[({2-tert-butylimidazo[1,2-a]pyridin-3-yl}methyl)amino]methyl}pyridine-4-carboxylic acid]
0.25 to 2.5 | 0.25 to 2.5 | – | < 0.25 | – | CCNC(=O)C1CN(Cc2cc(C(=O)O)ccn2)C1 [Compound 68, 2-{[3-(ethylcarbamoyl)azetidin-1-yl]methyl}pyridine-4-carboxylic acid]
– | – | > 2.5 | 0.25 to 2.5 | 0.25 to 2.5 | CC(N[C@@H](C)C(=O)NCc1ccccc1O)c1cc(C(=O)O)ccn1 (stereo partly drawn) [Compound 6, 2-(1-{[(1S)-1-{[(2-hydroxyphenyl)methyl]carbamoyl}ethyl]amino}ethyl)pyridine-4-carboxylic acid]
– | – | > 2.5 | 0.25 to 2.5 | 0.25 to 2.5 | CC(C)C[C@H](NCc1cc(C(=O)O)ccn1)C(=O)NCC1CCS(=O)(=O)C1 (stereo partly drawn) [Compound 38, 2-({[(1S)-1-{[(1,1-dioxo-1-thiolan-3-yl)methyl]carbamoyl}-3-methylbutyl]amino}methyl)pyridine-4-carboxylic acid]
